{
  "source": "paper PMC10716264",
  "about": "(Frontiers in Medicine, 2023)",
  "key": {"SARS-CoV-2 3CLpro": {"target": "SARS-CoV-2 3CLpro (Severe acute respiratory syndrome coronavirus 2, UniProt P0DTD1)", "assay": "biochemical"}, "[1]": {"test_system": "SARS-CoV-2 (2019-nCoV-WIV04)", "assay": "microbe, parasite or virus in culture", "format": "cell-based", "conditions": "read-out: EC50 against SARS-CoV-2 virus"}, "[2]": {"test_system": "influenza A/California/07/09 (H1N1) strain", "assay": "microbe, parasite or virus in culture", "format": "cell-based", "conditions": "read-out: EC50 (effective 50% concentration), MDCK cells"}, "[3]": {"set-up": "method as in earlier work", "conditions": "co-administration with ritonavir; cited from earlier work"}, "[4]": {"target": "SARS-CoV-2 RdRp complex (nsp12-nsp7-nsp8) (Severe acute respiratory syndrome coronavirus 2, UniProt P0DTD1)", "format": "biochemical"}, "COVID-19": {"test_system": "COVID-19", "set-up": "method as in PMID 32568613", "conditions": "unvaccinated symptomatic adults, Nirmatrelvir-based therapy; cited from earlier work"}, "[5]": {"conditions": "Severe acute respiratory syndrome coronavirus 2, Vero C1008, 24 h"}},
  "note": "Read-outs that look alike come from different tables or passages of the source.",
  "data": [
    {"compound": "2,4-bis-O-galloyl-1,3,6-tri-O-galloyl-β-D-glucose [R-7]", "values": [
      {"measurement": "IC50", "setting": "SARS-CoV-2 3CLpro", "value": 9.84, "unit": "µM"},
      {"measurement": "EC50", "setting": "[1]", "value": 17.5, "unit": "µM"}
    ]},
    {"compound": "NC(=O)c1nc(F)c[nH]c1=O", "note": "[Favipiravir]", "values": [
      {"measurement": "EC50", "setting": "[2]", "value": 24, "unit": "µM"}
    ]},
    {"compound": "Cc1cccc(C)c1OCC(=O)N[C@@H](Cc1ccccc1)[C@@H](O)C[C@H](Cc1ccccc1)NC(=O)[C@H](C(C)C)N1CCCNC1=O", "note": "[Lopinavir]", "values": [
      {"measurement": "increase of area under the plasma concentration-time curve", "setting": "[3]", "value": "more than 100 times"}
    ]},
    {"compound": "O=c1c(O)c(-c2cc(O)c(O)c(O)c2)oc2cc(O)cc(O)c12", "note": "[Myricetin]", "values": [
      {"measurement": "formation of the RdRp-RNA complex", "setting": "[4]; 250 μM", "value": "completely blocked"},
      {"measurement": "inhibition of primer elongation", "setting": "[4]; gel assay, compared with Rutan", "value": "showed inhibitory activity in higher concentrations"}
    ]},
    {"compound": "CC(C)(C)[C@H](NC(=O)C(F)(F)F)C(=O)N1C[C@H]2[C@@H]([C@H]1C(=O)N[C@H](C#N)C[C@@H]1CCNC1=O)C2(C)C", "note": "[Nirmatrelvir]", "values": [
      {"measurement": "reduction of the risk of severe complications following COVID-19 infection", "setting": "COVID-19", "value": 89, "unit": "%"}
    ]},
    {"compound": "O=C(OC[C@H]1O[C@@H](OC(=O)c2cc(O)c(O)c(O)c2)[C@H](OC(=O)c2cc(O)c(O)c(O)c2)[C@@H](OC(=O)c2cc(O)c(O)c(O)c2)[C@@H]1OC(=O)c1cc(O)c(O)c(O)c1)c1cc(O)c(O)c(O)c1", "note": "[R-5, 1,2,3,4,6-penta-O-galloyl-β-D-glucose]", "values": [
      {"measurement": "EC50", "setting": "[1]; [5]", "value": 7.49, "unit": "µM"}
    ]},
    {"compound": "O=C(OC[C@H]1O[C@@H](OC(=O)c2cc(O)c(O)c(O)c2)[C@H](OC(=O)c2cc(O)c(O)c(O)c2)[C@@H](OC(=O)c2cc(O)c(O)c(OC(=O)c3cc(O)c(O)c(O)c3)c2)[C@@H]1OC(=O)c1cc(O)c(O)c(O)c1)c1cc(O)c(O)c(O)c1", "note": "[R-6, 3-bis-O-galloyl-1,2,4,6-tetra-O-galloyl-β-D-glucose]", "values": [
      {"measurement": "IC50", "setting": "SARS-CoV-2 3CLpro", "value": 9.92, "unit": "µM"},
      {"measurement": "EC50", "setting": "[1]; Severe acute respiratory syndrome coronavirus 2, Vero C1008, Vero E6 cells, MOI 0.01, 24 h post-infection, viral copies by qRT-PCR", "value": 5.95, "unit": "µM"}
    ]},
    {"compound": "O=C(OC[C@H]1O[C@@H](OC(=O)c2cc(O)c(O)c(O)c2)[C@H](OC(=O)c2cc(O)c(O)c(OC(=O)c3cc(O)c(O)c(O)c3)c2)[C@@H](OC(=O)c2cc(O)c(O)c(OC(=O)c3cc(O)c(O)c(O)c3)c2)[C@@H]1OC(=O)c1cc(O)c(O)c(OC(=O)c2cc(O)c(O)c(O)c2)c1)c1cc(O)c(O)c(O)c1", "note": "[R-8, 2,3,4-bis-O-galloyl-1,6-di-O-galloyl-β-D-glucose]", "values": [
      {"measurement": "IC50", "setting": "SARS-CoV-2 3CLpro; Rutan and components (Figure 4)", "value": 1.34, "unit": "µM"}
    ]},
    {"compound": "CCC(CC)COC(=O)[C@H](C)N[P@](=O)(OC[C@H]1O[C@@](C#N)(c2ccc3c(N)ncnn23)[C@H](O)[C@@H]1O)Oc1ccccc1", "note": "[Remdesivir]", "values": [
      {"measurement": "EC50", "setting": "[1]; [5]", "value": 2, "unit": "µM"}
    ]}
  ]
}
